Source: publication PMC8359378 (British Journal of Clinical Pharmacology, 2021)
Entries after “also recorded” stand apart in the source; their conditions may differ.

Columns and labels:
[1] = tested on: healthy subjects; assay: safety and tolerability; assay type: in vivo, human; settings: for All TEAEs, subjects / Bleeding time prolonged TEAE, subjects / Dizziness TEAE, subjects / Headache TEAE, subjects / Muscle twitching TEAE, subjects: Part B, fed
[2] = target: human FXIa; settings: competitive and reversible inhibition; cited from earlier work
[3] = tested on: activated partial thromboplastin time (aPTT); assay: activated partial thromboplastin time; assay type: in vivo, human
[4] = tested on: monkey arteriovenous shunt model; settings: preclinical; cited from earlier work
[5] = target: factor XI coagulation activity (FXI:C) (Homo sapiens, UniProt P03951); assay: factor XI coagulation activity; assay type: in vivo
[6] = Part A, single dose 300 mg, fasted
[7] = Part A, single dose 1 mg, fasted
[8] = Part A, single dose 5 mg, fasted
[9] = Part A, single dose 20 mg, fasted
[10] = Part A, single dose 80 mg, fasted
[11] = Part A, single dose 150 mg, fasted
[12] = Part A, single dose of 20–300 mg
[13] = Part B, 80 mg QD for 14 days, fed
[14] = Part B, 150 mg QD for 14 days, fed
[15] = Part B, first dose of 80, 150 and 250 mg

factor XI coagulation activity (FXI:C), sequence (P03951 388-625 limits assumed): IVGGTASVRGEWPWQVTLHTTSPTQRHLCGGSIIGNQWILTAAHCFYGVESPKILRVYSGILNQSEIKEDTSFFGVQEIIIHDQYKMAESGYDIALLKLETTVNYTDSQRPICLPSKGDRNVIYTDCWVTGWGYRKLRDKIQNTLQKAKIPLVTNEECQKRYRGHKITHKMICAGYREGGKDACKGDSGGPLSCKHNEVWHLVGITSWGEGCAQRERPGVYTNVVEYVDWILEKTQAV
factor XI coagulation activity (FXI:C), sequence (P03951 19-387 partner limits assumed): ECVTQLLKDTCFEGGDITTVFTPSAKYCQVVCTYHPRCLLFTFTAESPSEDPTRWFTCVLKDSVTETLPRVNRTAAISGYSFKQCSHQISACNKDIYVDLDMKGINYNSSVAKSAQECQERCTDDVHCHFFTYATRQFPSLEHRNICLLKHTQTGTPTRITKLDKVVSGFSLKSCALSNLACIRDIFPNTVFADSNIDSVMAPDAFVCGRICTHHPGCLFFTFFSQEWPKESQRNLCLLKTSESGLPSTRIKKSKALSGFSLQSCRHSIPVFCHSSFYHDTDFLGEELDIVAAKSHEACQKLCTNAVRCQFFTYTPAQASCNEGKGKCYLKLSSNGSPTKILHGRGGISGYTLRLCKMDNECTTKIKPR

With `Nc1ccc(-c2nc([C@H]3CCc4cc(-c5cc(Cl)ccc5-n5cnnn5)cc(=O)n43)c(F)[nH]2)c(F)n1` [ONO‐7684] the “Thrombocytopenia TEAE, subjects” value [1, 6] was 1 (16.7) n (%), the “All TEAEs, subjects” value ([1]; 80 mg QD for 14 days) was 2 (33.3) n (%) and the “Bleeding time prolonged TEAE, subjects” value ([1]; 80 mg QD for 14 days) was 0 n (%). The “Dizziness TEAE, subjects” value ([1]; 80 mg QD for 14 days) was 1 (16.7) n (%), the “Headache TEAE, subjects” value ([1]; 80 mg QD for 14 days) was 1 (16.7) n (%) and the “Muscle twitching TEAE, subjects” value ([1]; 80 mg QD for 14 days) was 1 (16.7) n (%). For the same compound, the “All TEAEs, subjects” value ([1]; 150 mg QD for 14 days) was “No TEAEs”, the “Bleeding time prolonged TEAE, subjects” value ([1]; 150 mg QD for 14 days) was 0 n (%) and the “Dizziness TEAE, subjects” value ([1]; 150 mg QD for 14 days) was 0 n (%). The “Headache TEAE, subjects” value ([1]; 150 mg QD for 14 days) was 0 n (%), the “Muscle twitching TEAE, subjects” value ([1]; 150 mg QD for 14 days) was 0 n (%) and the “All TEAEs, subjects” value ([1]; 150 mg QD for 14 days, listed as ONO 7684) was 0 n (%). The “All TEAEs, subjects” value ([1]; 250 mg QD for 14 days) was “No TEAEs”, the “Bleeding time prolonged TEAE, subjects” value ([1]; 250 mg QD for 14 days) was 0 n (%) and the “Dizziness TEAE, subjects” value ([1]; 250 mg QD for 14 days) was 0 n (%). For the same compound, the “Headache TEAE, subjects” value ([1]; 250 mg QD for 14 days) was 0 n (%), the “Muscle twitching TEAE, subjects” value ([1]; 250 mg QD for 14 days) was 0 n (%) and the “All TEAEs, subjects” value ([1]; 250 mg QD for 14 days, listed as ONO 7684) was 0 n (%). The bleeding risk ([1]; Parts A and B) was “no evidence to suggest a bleeding risk; also recorded: no evidence of a bleeding risk”, the “severe or serious TEAEs, TEAEs leading to discontinuation” value ([1]; Parts A and B) was “no severe or serious TEAEs” and the tolerability ([1]; all dose levels, single and repeated doses) was “well tolerated at all dose levels tested”. For the same compound, the Ki [2] was 2 nM, the “time of maximal prolongation of aPTT post‐dose” value ([3]; Part A, 80 mg fed group) was “approximately 8 hours” and the “aPTT Day 1 24 hours RTB, mean ± SD” value [3, 7] was 1.00 ± 0.034. For the same compound, the “aPTT Day 1 24 hours RTB, mean ± SD” value [3, 8] was 1.10 ± 0.061, the “aPTT Maximum on treatment RTB, mean ± SD” value [3, 8] was 1.18 ± 0.054 and the “aPTT Day 1 24 hours RTB, mean ± SD” value [3, 9] was 1.15 ± 0.119. The “aPTT Maximum on treatment RTB, mean ± SD” value [3, 9] was 1.40 ± 0.016, the “aPTT Day 1 24 hours RTB, mean ± SD” value [3, 10] was 1.54 ± 0.111 and the “aPTT Maximum on treatment RTB, mean ± SD” value [3, 10] was 1.83 ± 0.172. The “aPTT Day 1 24 hours RTB, mean ± SD” value ([3]; Part A, single dose 80 mg, fed) was 1.61 ± 0.128, the “aPTT Maximum on treatment RTB, mean ± SD” value ([3]; Part A, single dose 80 mg, fed) was 1.74 ± 0.163 and the “aPTT Day 1 24 hours RTB, mean ± SD” value [3, 11] was 1.63 ± 0.031. For the same compound, the “aPTT Maximum on treatment RTB, mean ± SD” value [3, 11] was 1.97 ± 0.078, the “aPTT Day 1 24 hours RTB, mean ± SD” value [3, 6] was 1.99 ± 0.139 and the “time of maximal prolongation of aPTT post‐dose” value [3, 12] was “approximately 4 hours”. For the same compound, the “aPTT Maximum on treatment RTB, mean ± SD” value [3, 13] was 2.07 ± 0.152, the “aPTT Day 1 24 hours RTB, mean ± SD” value ([3]; Part B, 80 mg QD, fed) was 1.53 ± 0.119 and the “aPTT Day 14 24 hours RTB, mean ± SD” value ([3]; Part B, 80 mg QD, fed) was 1.87 ± 0.163. The “aPTT Maximum on treatment RTB, mean ± SD” value [3, 14] was 2.35 ± 0.275, the “aPTT Day 1 24 hours RTB, mean ± SD” value ([3]; Part B, 150 mg QD, fed) was 1.78 ± 0.174 and the “aPTT Day 14 24 hours RTB, mean ± SD” value ([3]; Part B, 150 mg QD, fed) was 2.06 ± 0.261. The “aPTT Day 1 24 hours RTB, mean ± SD” value ([3]; Part B, 250 mg QD, fed) was 2.06 ± 0.091, the “aPTT Day 14 24 hours RTB, mean ± SD” value ([3]; Part B, 250 mg QD, fed) was 2.53 ± 0.146 and the “time of maximal aPTT prolongation post‐dose” value [3, 15] was “approximately 4 hours”. The thrombus formation [4] was “significantly inhibited thrombus formation”, the “time of maximal inhibition of FXI:C post‐dose” value ([5]; Part A, 80 mg fed group) was “approximately 8 hours” and the “time of return of FXI:C and aPTT to near baseline levels post‐dose” value ([5]; Part A, 80, 150 and 300 mg) was at most 72 h. The “time the effects on FXI:C and aPTT were maintained” value ([5]; Part A, 80, 150 and 300 mg) was “up to 24 hours”, the “FXI:C Day 1 24 hours RTB, mean ± SD” value [5, 7] was 0.95 ± 0.141 and the “FXI:C Day 1 24 hours inhibition, mean ± SD” value [5, 7] was 5 ± 14.1%. For the same compound, the “FXI:C Maximum on treatment inhibition, mean ± SD” value [5, 7] was 13 ± 7.7%, the “FXI:C Day 1 24 hours RTB, mean ± SD” value [5, 8] was 0.95 ± 0.049 and the “FXI:C Day 1 24 hours inhibition, mean ± SD” value [5, 8] was 5 ± 4.9%. The “FXI:C Maximum on treatment inhibition, mean ± SD” value [5, 8] was 10 ± 2.6%, the “FXI:C Minimum on treatment RTB, mean ± SD” value (shortened to “FXI:C Minimum … mean ± SD”) [5, 8] was 0.90 ± 0.026 and the “FXI:C Day 1 24 hours RTB, mean ± SD” value [5, 9] was 0.95 ± 0.185. For the same compound, the “FXI:C Day 1 24 hours inhibition, mean ± SD” value [5, 9] was 5 ± 18.5%, the “FXI:C Maximum on treatment inhibition, mean ± SD” value [5, 9] was 29 ± 4.8% and the “FXI:C Minimum … mean ± SD” value [5, 9] was 0.71 ± 0.048. The “FXI:C Day 1 24 hours RTB, mean ± SD” value [5, 10] was 0.61 ± 0.051, the “FXI:C Day 1 24 hours inhibition, mean ± SD” value [5, 10] was 39 ± 5.1% and the “FXI:C Maximum on treatment inhibition, mean ± SD” value [5, 10] was 69 ± 7.0%. For the same compound, the “FXI:C Minimum … mean ± SD” value [5, 10] was 0.31 ± 0.070, the “FXI:C Day 1 24 hours RTB, mean ± SD” value ([5]; Part A, single dose 80 mg, fed) was 0.61 ± 0.066 and the “FXI:C Day 1 24 hours inhibition, mean ± SD” value ([5]; Part A, single dose 80 mg, fed) was 39 ± 6.6%. The “FXI:C Maximum on treatment inhibition, mean ± SD” value ([5]; Part A, single dose 80 mg, fed) was 54 ± 8.9%, the “FXI:C Minimum … mean ± SD” value ([5]; Part A, single dose 80 mg, fed) was 0.46 ± 0.089 and the “FXI:C Day 1 24 hours RTB, mean ± SD” value [5, 11] was 0.48 ± 0.057. For the same compound, the “FXI:C Maximum on treatment inhibition, mean ± SD” value [5, 11] was 78 ± 3.4%, the “FXI:C Minimum … mean ± SD” value [5, 11] was 0.22 ± 0.034 and the “FXI:C Day 1 24 hours RTB, mean ± SD” value [5, 6] was 0.26 ± 0.089. The “FXI:C Day 1 24 hours inhibition, mean ± SD” value [5, 6] was 74 ± 8.9%, the “time of maximal inhibition of FXI:C post‐dose” value [5, 12] was “approximately 4 hours” and the “FXI:C Minimum … mean ± SD” value [5, 13] was 0.25 ± 0.077. For the same compound, the “FXI:C Day 1 24 hours RTB, mean ± SD” value ([5]; Part B, 80 mg QD, fed) was 0.67 ± 0.035, the “FXI:C Day 14 24 hours RTB, mean ± SD” value ([5]; Part B, 80 mg QD, fed) was 0.39 ± 0.111 and the “FXI:C Minimum … mean ± SD” value [5, 14] was 0.15 ± 0.052. For the same compound, the “FXI:C Day 1 24 hours RTB, mean ± SD” value ([5]; Part B, 150 mg QD, fed) was 0.48 ± 0.112, the “FXI:C Day 14 24 hours RTB, mean ± SD” value ([5]; Part B, 150 mg QD, fed) was 0.27 ± 0.096 and the “FXI:C Day 1 24 hours RTB, mean ± SD” value ([5]; Part B, 250 mg QD, fed) was 0.33 ± 0.065. The “FXI:C Day 14 24 hours RTB, mean ± SD” value ([5]; Part B, 250 mg QD, fed) was 0.14 ± 0.053 and the “time of maximal inhibition of FXI:C post‐dose” value [5, 15] was “approximately 4 hours”.
